Source: US20250049891A1, “NOVEL PEPTIDE DERIVATIVE DERIVED FROM ADIPONECTIN AND USE THEREOF” (SEOUL NATIONAL UNIVERSITY HOSPITAL, priority 2021, published 2025)
In brackets after ≈: the same amount, converted by molar mass. Square brackets hold non-standard residues; d marks the D form. Peptide text beside a SMILES is read from it. Phe(4-Cl) = N[CH](Cc1ccc(Cl)cc1)C(=O)O; Phe(4-F) = N[CH](Cc1ccc(F)cc1)C(=O)O

Experiments:
AMPK phosphorylation [1] = test: AMPK phosphorylation activity in mouse adipocytes (Western blot); type: cell-based; settings: 3T3-L1, 10 μM, 24 hours; for AMPK phosphorylation activity (fold change): APN5 = 1.0
Protocol: There were confirmed effects of the peptide derivatives of the present disclosure on the expression and receptor activity of adiponectin in mouse adipocytes as a main adiponectin production site. A mouse adipocyte cell line 3T3-L1 was treated with each of the peptide derivatives of the present disclosure at a concentration of 10 μM and cultured for 24 hours, and then cells were obtained. Thereafter, the proteins were extracted and the effect on AMPK phosphorylation, which was responsible for the main downstream signaling of adiponectin, was confirmed by Western blot.

CYP3A4 = CYP3A4 (Homo sapiens, UniProt P08684); settings: microsomes, 10 µM
CYP3A4, sequence (P08684 whole entry): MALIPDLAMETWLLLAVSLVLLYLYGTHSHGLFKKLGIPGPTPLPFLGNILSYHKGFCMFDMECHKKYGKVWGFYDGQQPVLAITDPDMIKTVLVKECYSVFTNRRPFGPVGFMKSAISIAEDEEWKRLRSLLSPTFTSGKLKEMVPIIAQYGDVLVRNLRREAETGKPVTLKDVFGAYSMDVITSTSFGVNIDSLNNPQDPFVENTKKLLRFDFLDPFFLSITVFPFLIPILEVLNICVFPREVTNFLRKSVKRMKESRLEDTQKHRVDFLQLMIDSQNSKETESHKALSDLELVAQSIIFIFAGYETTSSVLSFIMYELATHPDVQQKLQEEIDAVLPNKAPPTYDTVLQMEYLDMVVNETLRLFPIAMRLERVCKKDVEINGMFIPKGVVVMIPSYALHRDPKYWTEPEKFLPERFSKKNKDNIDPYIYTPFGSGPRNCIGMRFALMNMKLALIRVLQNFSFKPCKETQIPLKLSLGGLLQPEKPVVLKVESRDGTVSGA
Protocol: (§1) Metabolites of each CYP isoenzyme indicator drug produced through the reaction were analyzed by LC-MS/MS using the Shimadzu Nexera XR system and TSQ vantage (Thermo).

CYP1A2 = biological target: T1, CYP1A2 (Homo sapiens, UniProt P05177); settings: microsomes, 10 µM
T1 sequence (P05177 1-516): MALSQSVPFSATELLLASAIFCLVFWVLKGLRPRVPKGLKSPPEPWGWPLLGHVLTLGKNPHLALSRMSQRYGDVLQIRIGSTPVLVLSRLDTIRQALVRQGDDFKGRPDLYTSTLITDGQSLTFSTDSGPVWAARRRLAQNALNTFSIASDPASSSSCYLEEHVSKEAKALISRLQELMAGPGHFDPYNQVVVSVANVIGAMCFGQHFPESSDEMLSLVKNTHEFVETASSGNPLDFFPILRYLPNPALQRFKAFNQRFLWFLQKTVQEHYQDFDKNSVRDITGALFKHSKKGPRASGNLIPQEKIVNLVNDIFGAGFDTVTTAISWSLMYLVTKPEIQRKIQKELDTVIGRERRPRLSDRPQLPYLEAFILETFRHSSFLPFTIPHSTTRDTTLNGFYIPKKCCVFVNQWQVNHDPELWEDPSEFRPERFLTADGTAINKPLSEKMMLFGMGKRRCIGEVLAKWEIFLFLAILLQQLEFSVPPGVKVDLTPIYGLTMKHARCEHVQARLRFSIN
Protocol: as §1

CYP2C19 = CYP2C19 (Homo sapiens, UniProt P33261); settings: microsomes, 10 µM
CYP2C19, sequence (P33261 whole entry): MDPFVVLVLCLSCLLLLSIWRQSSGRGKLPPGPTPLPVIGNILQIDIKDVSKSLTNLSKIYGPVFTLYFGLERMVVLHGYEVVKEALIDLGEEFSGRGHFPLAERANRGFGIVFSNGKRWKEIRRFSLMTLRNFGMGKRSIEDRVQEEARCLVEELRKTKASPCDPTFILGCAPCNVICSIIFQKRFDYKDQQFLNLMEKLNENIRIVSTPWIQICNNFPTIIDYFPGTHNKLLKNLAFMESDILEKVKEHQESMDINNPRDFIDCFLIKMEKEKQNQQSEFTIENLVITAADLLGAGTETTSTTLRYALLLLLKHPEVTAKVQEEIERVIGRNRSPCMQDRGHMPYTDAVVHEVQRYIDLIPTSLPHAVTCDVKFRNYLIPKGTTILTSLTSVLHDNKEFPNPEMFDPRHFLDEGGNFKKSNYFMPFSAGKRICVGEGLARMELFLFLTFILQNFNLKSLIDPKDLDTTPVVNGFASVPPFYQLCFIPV
Protocol: as §1

CYP2D6 = CYP2D6 (Homo sapiens, UniProt P10635); settings: microsomes, 10 µM
CYP2D6, sequence (P10635 whole entry): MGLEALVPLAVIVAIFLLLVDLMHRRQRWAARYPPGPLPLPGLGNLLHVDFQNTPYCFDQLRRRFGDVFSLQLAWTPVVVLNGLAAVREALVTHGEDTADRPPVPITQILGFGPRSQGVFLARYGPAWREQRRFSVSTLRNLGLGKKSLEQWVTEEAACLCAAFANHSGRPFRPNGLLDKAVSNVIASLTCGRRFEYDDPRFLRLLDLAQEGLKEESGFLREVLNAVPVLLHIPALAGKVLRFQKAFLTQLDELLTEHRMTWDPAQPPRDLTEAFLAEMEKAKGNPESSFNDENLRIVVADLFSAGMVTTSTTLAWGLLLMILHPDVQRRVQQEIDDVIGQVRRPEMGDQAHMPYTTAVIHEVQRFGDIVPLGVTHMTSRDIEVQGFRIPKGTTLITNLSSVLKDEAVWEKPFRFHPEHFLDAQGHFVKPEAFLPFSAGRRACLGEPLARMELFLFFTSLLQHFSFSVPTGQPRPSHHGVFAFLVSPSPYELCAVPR
Protocol: as §1

CYP2C9 = CYP2C9 (Homo sapiens, UniProt P11712); settings: microsomes, 10 µM
CYP2C9, sequence (P11712 whole entry): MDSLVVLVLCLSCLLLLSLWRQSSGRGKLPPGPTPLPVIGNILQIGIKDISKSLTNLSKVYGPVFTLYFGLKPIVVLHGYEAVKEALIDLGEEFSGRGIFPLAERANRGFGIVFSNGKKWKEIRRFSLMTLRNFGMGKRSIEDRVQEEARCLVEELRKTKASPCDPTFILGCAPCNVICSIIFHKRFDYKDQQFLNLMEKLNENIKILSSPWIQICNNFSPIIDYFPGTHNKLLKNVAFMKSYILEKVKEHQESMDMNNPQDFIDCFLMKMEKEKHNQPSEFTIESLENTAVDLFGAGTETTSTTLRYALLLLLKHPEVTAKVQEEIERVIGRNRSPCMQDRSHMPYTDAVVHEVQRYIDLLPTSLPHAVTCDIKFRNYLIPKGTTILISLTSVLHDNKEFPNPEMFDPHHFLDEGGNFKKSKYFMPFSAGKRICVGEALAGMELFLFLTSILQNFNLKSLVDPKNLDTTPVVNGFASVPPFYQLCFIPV
Protocol: as §1

[2] = Metabolic stability test, rat liver microsomes; type: in vitro ADME; settings: NADPH, 37° C.; for remaining at 0.5 h, 1 μM: pH 7.4, rat liver microsomes 0.5 mg/ml, 30 m
[3] = Plasma stability test, rat plasma; settings: for remaining at 0.5 h, 1 μM / remaining at 2 h, 1 μM: rat, plasma
Solubility test = settings: kinetic from dmso stock
in vitro [4] = settings: human, plasma
in vitro [5] = settings: human, microsomes, pH 7.4
[6] = Metabolic stability test, mouse liver microsomes; type: in vitro ADME; settings: NADPH, 37° C.; for remaining at 0.5 h, 1 μM: pH 7.4, mouse liver microsomes 0.5 mg/ml, 30 m
AMPK phosphorylation [7] = test: Concentration dependence of AMPK phosphorylation activity (Western blot); type: cell-based, mouse; settings: 3T3-L1, 0, 0.01, 0.1, 1, 10, and 100 μM, 24 hours
Protocol: A mouse adipocyte cell line 3T3-L1 was treated with the peptide derivative of the present disclosure at a series of concentrations of 0, 0.01, 0.1, 1, 10, and 100 μM and cultured for 24 hours, and then cells were obtained. Thereafter, the protein was extracted and the effect of the peptide derivative on AMPK phosphorylation in a concentration-dependent manner was confirmed by Western blot.

physchem = settings: pH 7.4, aqueous buffer, kinetic from dmso stock
in vitro [8] = settings: rat, plasma
[9] = Metabolic stability test, human liver microsomes; settings: for remaining at 0.5 h, 1 μM: human, microsomes, pH 7.4
[10] = Plasma stability test, human plasma; settings: for remaining at 0.5 h, 1 μM / remaining at 2 h, 1 μM: human, plasma
[11] = test system: 3T3-L1 adipocytes, RD muscle cells, keratinocytes, and fibroblasts; test: Cytotoxicity in vitro (MTT); type: cell-based; settings: 0, 0.1, 1, 10, 100, and 500 μM, 24 hours
adiponectin receptor 1 = biological target: T2, adiponectin receptor 1 (Mus musculus, UniProt Q91VH1); test: AMPK phosphorylation activity after knockdown of adiponectin receptor 1 (siRNA, Western blot); type: cell-based; settings: 3T3-L1, adiponectin receptor 1 siRNA, 10 μM, 24 hours
T2 construct: a mouse adipocyte cell line 3T3-L1 was treated with siRNA of an adiponectin receptor 1 to be knocked down; endogenous in cells; host or cells: 3T3-L1 mouse adipocyte cell line
T2 sequence (Q91VH1 1-375): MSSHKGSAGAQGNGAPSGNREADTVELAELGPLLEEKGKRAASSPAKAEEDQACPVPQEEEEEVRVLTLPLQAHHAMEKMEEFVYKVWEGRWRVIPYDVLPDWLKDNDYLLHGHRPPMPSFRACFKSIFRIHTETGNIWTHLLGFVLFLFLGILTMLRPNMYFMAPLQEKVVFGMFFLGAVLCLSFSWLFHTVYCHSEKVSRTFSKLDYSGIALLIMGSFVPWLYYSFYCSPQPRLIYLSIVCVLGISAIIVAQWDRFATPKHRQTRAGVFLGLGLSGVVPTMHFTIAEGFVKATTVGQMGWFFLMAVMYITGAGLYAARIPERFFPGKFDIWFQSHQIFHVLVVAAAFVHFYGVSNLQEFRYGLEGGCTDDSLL
Protocol: In order to verify whether the peptide derivative of the present disclosure bound to an adiponectin receptor 1, a mouse adipocyte cell line 3T3-L1 was treated with siRNA of an adiponectin receptor 1 to be knocked down, and each of the peptide derivatives of the present disclosure was treated at 10 μM and cultured for 24 hours, and then cells were obtained. Thereafter, the proteins were extracted and it was confirmed by Western blot whether AMPK phosphorylation activity, which had been increased by the peptide derivatives, was lost.

[12] = PRISMA HT buffer, pH 7.4, aqueous buffer

SMILES	CYP inhibition (% of control activity) CYP3A4 (CYP3A4)	CYP inhibition (% of control activity) CYP2C19 (CYP2C19)	CYP inhibition (% of control activity) CYP2D6 (CYP2D6)	solubility kinetic at 24 h (Solubility test; [12]) [µg/mL]	AMPK phosphorylation activity (fold change) (AMPK phosphorylation [1])	remaining at 0.5 h, 1 μM [2] [%]	remaining at 0.5 h, 1 μM [3] [%]	remaining at 2 h, 1 μM [3] [%]	remaining at 0.5 h, 1 μM [6] [%]	AMPK phosphorylation activity compared to APN5 (in words) (AMPK phosphorylation [1])	AMPK phosphorylation activity after knockdown of the adiponectin receptor 1 (adiponectin receptor 1)	other results
CC(C)C[C@H](NC(=O)CN)C(=O)N[C@@H](Cc1ccc(O)cc1)C(=O)N[C@@H](Cc1ccc(O)cc1)C(=O)N[C@@H](Cc1ccccc1)C(=O)O [APN5, NH2-GLYYF-OH, reference compound]	82.9 % of control activity	98.5 % of control activity	92.3 % of control activity	8.2 (≈ 12.4 µM)	1.0	1.3	83.1	70.5	9.5	–	–	CYP inhibition (% of control activity) CYP1A2 (CYP1A2): 88.8 % of control activity; CYP inhibition (% of control activity) CYP2C9 (CYP2C9): >100 % of control activity; remaining at 0.5 h, 1 μM (in vitro [4]): < 1%; remaining at 2 h, 1 μM (in vitro [4]): < 1%; remaining at 0.5 h, 1 μM (in vitro [5]): 1.7%
Cc1cc(CC(NC(=O)C(CC(=O)O)NC(=O)CN)C(=O)NC(Cc2ccc(O)cc2)C(=O)NC(Cc2ccccc2)C(N)=O)cc(C)c1O (stereo not drawn) [DS-41, NH2-GDY(Dmt)YF-NH2]	–	–	–	–	–	75.1	> 100	99.6	95.2	–	–	remaining at 0.5 h, 1 μM [9]: 95.8%; remaining at 0.5 h, 1 μM [10]: < 1%; remaining at 2 h, 1 μM [10]: < 1%
CC(C)CC(NC(=O)CN)C(=O)NC(Cc1ccc(O)cc1)C(=O)NC(Cc1ccc(O)cc1)C(=O)N(C)C(Cc1ccccc1)C(N)=O (stereo not drawn) [DS-48, NH2-GLYYF(N-Me)-NH2]	–	–	–	–	1.5	2.8	> 100	84.9	20.6	significant effect of increasing AMPK phosphorylation activity	decreased the AMPK phosphorylation activity after knockdown of the adiponectin receptor 1	concentration dependence of AMPK phosphorylation activity (AMPK phosphorylation [7]): increased AMPK phosphorylation activity in a concentration-dependent manner; solubility at 24 h (Solubility test; PRISMA HT test buffer, pH 7.4, aqueous buffer): 334 µg/mL (≈ 495 µM); cytotoxicity [11]: no toxicity; remaining at 0.5 h, 1 μM [9]: 21.6%; remaining at 0.5 h, 1 μM [10]: 1.1%; remaining at 2 h, 1 μM [10]: < 1%
CC(C)CC(NC(=O)CN)C(=O)NC(Cc1ccc(F)cc1)C(=O)NC(Cc1ccc(O)cc1)C(=O)NC(Cc1ccccc1)C(N)=O (stereo not drawn) [DS-51, NH2-GLF(4-F)YF-NH2] (H-GL[Phe(4-F)]YF-NH2; configuration not given here)	–	–	–	–	1.3	–	–	–	–	significant effect of increasing AMPK phosphorylation activity	decreased the AMPK phosphorylation activity after knockdown of the adiponectin receptor 1	solubility at 24 h (physchem): 136 µg/mL (≈ 204 µM)
CC(C)CC(NC(=O)CN)C(=O)NC(Cc1ccc(Cl)cc1)C(=O)NC(Cc1ccc(O)cc1)C(=O)NC(Cc1ccccc1)C(N)=O (stereo not drawn) [DS-52, NH2-GLF(4-C1)YF-NH2] (H-GL[Phe(4-Cl)]YF-NH2; configuration not given here)	–	–	–	–	1.2	–	–	–	–	significant effect of increasing AMPK phosphorylation activity	decreased the AMPK phosphorylation activity after knockdown of the adiponectin receptor 1	–

Now from value to molecule, other results behind:

CYP inhibition (% of control activity) CYP3A4 (CYP3A4)	CYP inhibition (% of control activity) CYP2C19 (CYP2C19)	CYP inhibition (% of control activity) CYP2D6 (CYP2D6)	solubility kinetic at 24 h (Solubility test; [12]) [µg/mL]	SMILES	AMPK phosphorylation activity (fold change) (AMPK phosphorylation [1])	remaining at 0.5 h, 1 μM [2] [%]	remaining at 0.5 h, 1 μM [3] [%]	remaining at 2 h, 1 μM [3] [%]	remaining at 0.5 h, 1 μM [6] [%]	AMPK phosphorylation activity compared to APN5 (in words) (AMPK phosphorylation [1])	AMPK phosphorylation activity after knockdown of the adiponectin receptor 1 (adiponectin receptor 1)	other results
95.5 % of control activity	87.2 % of control activity	86.1 % of control activity	–	CC(=O)NC(CC(=O)O)C(=O)NC(Cc1ccc(O)cc1)C(=O)NC(Cc1ccc(O)cc1)C(=O)NC(Cc1ccccc1)C(=O)O (stereo not drawn) [DS-28, AcNH-DYYF-OH] (Ac-DYYF-OH; configuration not given here)	1.9	85.8	–	–	96.6	–	–	CYP inhibition (% of control activity) CYP1A2 (CYP1A2): 81.7 % of control activity; CYP inhibition (% of control activity) CYP2C9 (CYP2C9): 96.9 % of control activity; concentration dependence of AMPK phosphorylation activity (AMPK phosphorylation [7]): increased AMPK phosphorylation activity in a concentration-dependent manner; solubility at 24 h (physchem): 321 µg/mL (≈ 495 µM); remaining at 0.5 h, 1 μM (in vitro [8]): > 100%; remaining at 2 h, 1 μM (in vitro [8]): > 100%; remaining at 0.5 h, 1 μM (in vitro [4]): 17.6%; remaining at 2 h, 1 μM (in vitro [4]): 3.1%; remaining at 0.5 h, 1 μM (in vitro [5]): 93.8%
90.3 % of control activity	66.0 % of control activity	30.3 % of control activity	–	O=C(COc1ccc(C(=O)c2ccccc2)cc1)NC1CCN(Cc2ccccc2)CC1 [DS-43, adiporon, reference compound]	–	–	–	–	–	–	–	Metabolic stability (% remaining) Rat, 30 m ([2]; rat liver microsomes 0.5 mg/ml, 1 μM): 2.3 % remaining; Plasma stability (% remaining) Rat, 30 m ([3]; rat plasma, 1 μM, 37° C., 30 m): >100 % remaining; Plasma stability (% remaining) Rat, 120 m ([3]; rat plasma, 1 μM, 37° C., 120 m): >100 % remaining; solubility kinetic at 24 h (Solubility test; PRISMA HT buffer (diluted 1:40 in distilled water), pH 7.4, pH 7.4, aqueous buffer): 43.7 µg/mL (≈ 102 µM); Metabolic stability (% remaining) Human, 30 m ([9]; human liver microsomes 0.5 mg/ml, 1 μM, NADPH, 37° C., 30 m): 54.9 % remaining; Plasma stability (% remaining) Human, 30 m ([10]; human plasma, 1 μM, 37° C., 30 m): >100 % remaining; Plasma stability (% remaining) Human, 120 m ([10]; human plasma, 1 μM, 37° C., 120 m): >100 % remaining; Metabolic stability (% remaining) Mouse, 30 m ([6]; mouse liver microsomes 0.5 mg/ml, 1 μM): 3.1 % remaining
–	–	–	157 (≈ 530 µM)	O=C(O)Cc1ccccc1Nc1c(Cl)cccc1Cl [Diclofenac]	–	–	–	–	–	–	–	–
–	–	–	23.8 (≈ 111 µM)	Nc1ccc(/N=N/c2ccccc2)c(N)n1 [Phenazopyridine]	–	–	–	–	–	–	–	–
